Literature values, collected in patent publication US20030035827A1, “Pharmaceutical compositions containing substrates of enabling enzymes to preferentially deliver drugs away from PBVC or GIC systems” (priority 2001, published 2003).
Like-named read-outs stand apart in the source and are kept apart here.

Target: pseudocholinesterase, plasma cholinesterase or butyrocholinesterase (PCE) (Homo sapiens, UniProt P06276)
[1] = substrate of PCE, previous experiments
[2] = substrate of PCE, previous experiments, read-out: Km

Sequence of pseudocholinesterase, plasma cholinesterase or butyrocholinesterase (PCE) (P06276 29-602): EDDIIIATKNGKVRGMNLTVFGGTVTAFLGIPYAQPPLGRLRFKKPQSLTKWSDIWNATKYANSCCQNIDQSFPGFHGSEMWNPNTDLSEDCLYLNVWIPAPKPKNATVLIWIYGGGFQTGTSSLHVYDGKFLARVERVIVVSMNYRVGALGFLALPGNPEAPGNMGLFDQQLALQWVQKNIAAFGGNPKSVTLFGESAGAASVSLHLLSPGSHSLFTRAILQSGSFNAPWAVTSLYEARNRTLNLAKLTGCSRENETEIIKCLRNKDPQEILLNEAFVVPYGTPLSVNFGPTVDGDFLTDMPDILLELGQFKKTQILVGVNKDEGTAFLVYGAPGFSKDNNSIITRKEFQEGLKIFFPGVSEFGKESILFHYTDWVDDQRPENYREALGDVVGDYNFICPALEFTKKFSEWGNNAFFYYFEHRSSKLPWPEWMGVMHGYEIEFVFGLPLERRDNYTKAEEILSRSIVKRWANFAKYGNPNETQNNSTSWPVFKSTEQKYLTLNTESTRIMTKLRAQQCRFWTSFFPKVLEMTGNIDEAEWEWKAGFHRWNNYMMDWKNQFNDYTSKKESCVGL

In the case of CC(=O)OCC[N+](C)(C)C [Acetylcholine], the Km [1] is listed as 9,000 uM.
For CC(=O)Oc1ccccc1C(=O)O [Aspirin], the Kcat [1] is listed as 7,200/min and the Km [1] is listed as 1,600 uM.
In the case of C[N+](C)(C)CCOC(=O)c1ccccc1 [Benzoylcholine], the Kcat [1] is given as 15,000/min and the Km [2] is given as 22 µM.
In the case of CCCC(=O)OCC[N+](C)(C)C [Butyrylcholine], the Kcat [1] is listed as 80,000/min and the Km [2] is listed as 1700 µM.
In the case of CCCC(=O)SCC[N+](C)(C)C [Butyrylthiocholine], the Kcat [1] is given as 30,000/min.
For CCCCCCC(=O)OCC[N+](C)(C)C [Hepanoylcholine], the Kcat is given as 35,000/min and the Km (read-out: Km) is given as 1110 µM.
For CC(=O)Oc1ccc2c3c1O[C@H]1[C@@H](OC(C)=O)C=C[C@H]4[C@@H](C2)N(C)CC[C@@]341 [Heroin], the Km is listed as 450 µM and the Kcat [1] is listed as 500 min⁻¹.
For CCCCCC(=O)OCC[N+](C)(C)C [Hexanoylcholine], the Km (read-out: Km) is listed as 820 µM and the Kcat [1] is listed as 36,000/min.
For CCCC(=O)Oc1ccccc1[N+](=O)[O-] [O-Nitrophenylbutyrate], the Kcat is given as 48,000/min and the Km (read-out: Km) is given as 400 µM.
In the case of CCCCC(=O)OCC[N+](C)(C)C [Pentanoylcholine], the Km (read-out: Km) is listed as 1500 µM and the Kcat [1] is listed as 63,000/min.
For CCN(CC)CCOC(=O)c1ccc(N)cc1 [Procaine], the Km is listed as 100 µM and the Kcat [1] is listed as 255 min⁻¹.
In the case of CCC(=O)OCC[N+](C)(C)C [Propionylcholine], the Kcat [1] is given as 55,000/min and the Km [2] is given as 3100 µM.
In the case of CCCCNc1ccc(C(=O)OCCN(C)C)cc1 [Tetracaine], the Kcat [1] is given as 74 min⁻¹ and the Km [1] is given as 8 µM.
For Succinyldithiocholine, the Kcat [1] is given as 600 min⁻¹ and the Km [2] is given as 1080 µM.
